Assay results as given in US7071293B1, “Alpha helical peptides with broad spectrum antimicrobial activity that are insensitive to salt” (priority 1999, dated 2006).
Values after ≈ are worked out from the molar mass of the structure shown. Values joined by “and” are separate entries in the source; they are usually repeats but may differ in a detail not shown here. Equal entries are not always repeated. Where two headings read alike, the source gives them in different places. Ends that are not written are not given here.

What was measured:
[1] = test system: Neisseria gonorrhoeae; conditions: cited from earlier work; for MIC90: in µg/mL
[2] = test system: Streptococcus pneumoniae; conditions: cited from earlier work
[3] = test system: Bacteroides fragilis; conditions: cited from earlier work
[4] = test system: Haemophilus ducreyi; conditions: cited from earlier work
[5] = test system: Streptococcus spp.; conditions: cited from earlier work
[6] = test system: Listeria monocytogenes; conditions: cited from earlier work
[7] = test system: Staphylococcus aureus; conditions: cited from earlier work
[8] = test system: Neisseria meningitidis; conditions: cited from earlier work
[9] = test system: Bacillus spp.; conditions: cited from earlier work
[10] = test system: Campylobacter pylori; conditions: cited from earlier work
[11] = test system: Bordetella bronchiseptica; conditions: cited from earlier work
[12] = test system: Streptococcus pyogenes; conditions: in µg/mL; cited from earlier work
[13] = test system: Haemophilus influenzae; conditions: cited from earlier work; for MIC50 / MIC90: in µg/mL; for Range: MIC range
[14] = test system: Enterococcus faecium; conditions: cited from earlier work
[15] = test system: Campylobacter jejuni; conditions: cited from earlier work
[16] = test system: Haemophilus parainfluenzae; conditions: cited from earlier work
[17] = test system: Borrelia burgdorferi; conditions: cited from earlier work
[18] = test system: Enterococcus spp.; conditions: cited from earlier work
[19] = test system: Branhamella (Moraxella) catarrhalis; conditions: MIC range; Branhamella (Moraxella) catarrhalis (β-lactamase producer); cited from earlier work
[20] = test system: Streptococcus agalactiae; conditions: cited from earlier work
[21] = test system: Mycoplasma hominis; conditions: cited from earlier work
[22] = test system: Mycoplasma pneumoniae; conditions: cited from earlier work
[23] = test system: P. aeruginosa PAO1; conditions: avg ± sem
[24] = test system: E. coli ML-35p; conditions: Table 13; for MIC E. coli [NaCl] High: high salt underlay (10 mM sodium phosphate buffer +100 mM NaCl, pH 7.4); for MIC E. coli [NaCl] Low: low salt underlay (10 mM sodium phosphate buffer, pH 7.4)
[25] = test system: vancomycin and methicillin-resistant Gram-positives
[26] = test system: S. aureus 930918-3; conditions: 930918-3, pH 7.4
[27] = test system: MRSA ATCC 33591; conditions: ATCC 33591, pH 7.4
[28] = test system: P. aeruginosa MR 3007; conditions: MR 3007, pH 7.4
[29] = test system: P. aeruginosa PAO1; test: Relative time for killing (luminescence measured at intervals); type: cell-based; conditions: peptide at ten times its EC50 (SMAP29X-18D 15.7 X, SMAP29X-14A 17.4 X), 25 mM ionic strength
[30] = Staphylococcus aureus (penicillin susceptible)
[31] = Haemophilus influenzae (non β-lactamase producer)
[32] = Haemophilus influenzae (penicillin resistant)
[33] = Haemophilus influenzae (penicillin susceptible)
[34] = Haemophilus influenzae (β-lactamase producer)
[35] = E.f 142-1498-1 (Enterococcus fecaelis), Van A (vancomycin-resistant)
[36] = E.f 142-6873-3 (Enterococcus fecaelis), Van B (vancomycin-resistant)

## CC[C@H]1OC(=O)[C@H](C)[C@@H](O[C@H]2C[C@@](C)(OC)[C@@H](O)[C@H](C)O2)[C@H](C)[C@@H](O[C@@H]2O[C@H](C)C[C@H](N(C)C)[C@H]2O)[C@](C)(O)C[C@@H](C)C(=O)[C@H](C)[C@@H](O)[C@]1(C)O [ERYTHROMYCIN, erythromycin]
[1]; MIC range, Neisseria gonorrhoeae (non β-lactamase producer)
  Range: 0.015–4 and 0.03–2
[1]; Neisseria gonorrhoeae (non β-lactamase producer)
  MIC90: 2 and 1
[1]; Neisseria gonorrhoeae (β-lactamase producer)
  MIC90: 2 and 4
[1]; Neisseria gonorrhoeae
  MIC90: 1
[2]; MIC range
  Range: 0.03–0.25 and 0.015–0.06 and 0.015–0.25
[2]; in µg/mL
  MIC50: 0.06 and 0.03
  MIC90: 0.03 and 0.06
[3]; MIC range
  Range: 0.25–16
[3]
  MIC50: 1 µg/mL (≈ 1.36 µM)
  MIC90: 8 µg/mL (≈ 10.9 µM)
[4]
  MIC50: 0.004 µg/mL (≈ 0.00545 µM)
  MIC90: 0.06 µg/mL (≈ 0.0818 µM)
[5]
  MIC50: 0.03 µg/mL (≈ 0.0409 µM)
[6]
  MIC50: 0.5 µg/mL (≈ 0.681 µM)
[7]; Staphylococcus aureus (methicillin susceptible)
  MIC50: 0.5 µg/mL (≈ 0.681 µM)
[7]; [30]
  MIC50: 0.5 µg/mL (≈ 0.681 µM)
  MIC90: 0.5 µg/mL (≈ 0.681 µM)
[7]; Staphylococcus aureus
  MIC50: 0.5 µg/mL (≈ 0.681 µM)
[8]; MIC range
  Range: 0.5–8
[8]
  MIC50: 1 µg/mL (≈ 1.36 µM)
  MIC90: 8 µg/mL (≈ 10.9 µM)
[9]; MIC range
  Range: 0.03–2
[9]
  MIC90: 2 µg/mL (≈ 2.73 µM)
[10]; MIC range
  Range: 0.25–16
[10]
  MIC50: 0.5 µg/mL (≈ 0.681 µM)
[11]; MIC range
  Range: 4–32
[11]
  MIC50: 8 µg/mL (≈ 10.9 µM)
  MIC90: 32 µg/mL (≈ 43.6 µM)
[12]
  MIC50: 0.06 and 0.03
[13]; [31]
  MIC50: 2 and 4
  MIC90: 4 and 8
[13]; [32]
  MIC50: 8
  MIC90: 16
  Range: 8–16
[13]; [33]
  MIC50: 8
  MIC90: 16
  Range: 0.25–16
[13]; [34]
  MIC50: 4 and 2
  MIC90: 8 and 4
[13]; Haemophilus influenzae
  MIC50: 2 and 1
  MIC90: 2 and 4
  Range: 0.5–8
[14]
  MIC50: 1 µg/mL (≈ 1.36 µM)
[15]; MIC range
  Range: 0.5–8
[15]; in µg/mL
  MIC90: 4 and 2
[16]; MIC range
  Range: 0.5–8
[16]
  MIC50: 2 µg/mL (≈ 2.73 µM)
  MIC90: 4 µg/mL (≈ 5.45 µM)
[17]
  MIC50: 0.03 µg/mL (≈ 0.0409 µM)
  MIC90: 0.06 µg/mL (≈ 0.0818 µM)
[18]
  MIC50: 2 µg/mL (≈ 2.73 µM)
[19]
  Range: 0.06–1 and 0.03–0.25 and 0.06–8
[20]; MIC range
  Range: 0.03–0.25 and 0.015–0.06
[20]
  MIC50: 0.03 µg/mL (≈ 0.0409 µM)
  MIC90: 0.03 µg/mL (≈ 0.0409 µM)

## CCC[C@@H]1C[C@@H](C(=O)N[C@@H]([C@H]2O[C@H](SC)[C@H](O)[C@@H](O)[C@H]2O)[C@@H](C)O)N(C)C1 [LINCOMYCIN, lincomycin]
[7]; MIC range, Staphylococcus aureus
  Range: 0.5–512
[7]; Staphylococcus aureus
  MIC50: 1 µg/mL (≈ 2.46 µM)
  MIC90: 1 µg/mL (≈ 2.46 µM)
[21]; MIC range
  Range: 0.5–16
[21]
  MIC50: 2 µg/mL (≈ 4.92 µM)
  MIC90: 4 µg/mL (≈ 9.84 µM)
[22]; MIC range
  Range: 2–32
[22]
  MIC50: 8 µg/mL (≈ 19.7 µM)
  MIC90: 32 µg/mL (≈ 78.7 µM)

## KNLRRIIRKIIHIIKKYG [SMAP29X-18D]
[23]; ionic strength 25 mM
  EC50 P. aeruginosa PAO1: 0.29 ± 0.01 µg/mL
[23]; ionic strength 175 mM
  EC50 P. aeruginosa PAO1: 0.58 ± 0.05 µg/mL
[24]
  MIC E. coli [NaCl] High: 0.5 µg/mL
  MIC E. coli [NaCl] Low: 0.8 µg/mL
[25]; [35]
  MIC: 32 µg/mL
[25]; [36]
  MIC: 64 µg/mL
[26]
  MIC S. aureus [NaCl] High: 1.4 µg/mL
  MIC S. aureus [NaCl] Low: 2.0 µg/mL
[27]
  MIC MRSA [NaCl] High: 0.8 µg/mL
  MIC MRSA [NaCl] Low: 8.7 µg/mL
[28]
  MIC P. aeruginosa [NaCl] High: 0.5 µg/mL
  MIC P. aeruginosa [NaCl] Low: 1.1 µg/mL
[29]
  Half-time of Killing (min. avg. ± sem): 2.9 min

## LRRIIRKIIHIIKK-NH2 [SMAP29X-14A]
[23]; ionic strength 25 mM
  EC50 P. aeruginosa PAO1: 0.23 ± 0.03 µg/mL
[23]; ionic strength 175 mM
  EC50 P. aeruginosa PAO1: 1.59 ± 0.22 µg/mL
[24]
  MIC E. coli [NaCl] High: 0.9 µg/mL
  MIC E. coli [NaCl] Low: 2.9 µg/mL
[25]; [35]
  MIC: >64 µg/mL
[25]; [36]
  MIC: >64 µg/mL
[26]
  MIC S. aureus [NaCl] High: 1.9 µg/mL
  MIC S. aureus [NaCl] Low: 1.1 µg/mL
[27]
  MIC MRSA [NaCl] High: >79.1 µg/mL
  MIC MRSA [NaCl] Low: 7.6 µg/mL
[28]
  MIC P. aeruginosa [NaCl] High: 2.7 µg/mL
  MIC P. aeruginosa [NaCl] Low: 2.0 µg/mL
[29]
  Half-time of Killing (min. avg. ± sem): 20.9 min
